From patent publication US10005774B2, “Syk inhibitors” (Gilead Sciences, Inc., priority 2013, dated 2018)

target: Syk (Homo sapiens, UniProt P43405); assay: High Throughput Syk Biochemical Assay (KinEASE TR-FRET); settings: TABLE D, 20 μM ATP, 1 μM biotinylated peptide, 0.015 nM Syk, 30 min at room temperature, read-out: IC50
In short: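 Two-step endpoint TR-FRET (KinEASE) measured Syk phosphorylation of an XL665-labelled peptide, detected with europium anti-phosphotyrosine antibody. Compounds were serially diluted in DMSO.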

| IC50 | SMILES |
| --- | --- |
| 19.5 nM | COc1ccc(-c2cc3ncn(CC(F)F)c3c(O[C@H](C)[C@H]3CNC(=O)C3)n2)cc1OC [(R)-4-((R)-1-(3-(2,2-difluoroethyl)-6-(3,4-dimethoxyphenyl)-3H-imidazo[4,5-c]pyridin-4-yloxy)ethyl)pyrrolidin-2-one] |
| 10.2 nM | C[C@@H](Oc1nc(-c2cnn(C3CCOCC3)c2)cc2ncn(C)c12)[C@H]1CNC(=O)C1 [(R)-4-((R)-1-(3-methyl-6-(1-(tetrahydro-2H-pyran-4-yl)-1H-pyrazol-4-yl)-3H-imidazo[4,5-c]pyridin-4-yloxy)ethyl)pyrrolidin-2-one] |
| 70 nM | COc1ccc(-c2cc(O[C@H](C)[C@H]3CNC(=O)C3)c3sc(C)nc3c2)cc1OC [(R)-4-((R)-1-((5-(3,4-dimethoxyphenyl)-2-methylbenzo[d]thiazol-7-yl)oxy)ethyl)pyrrolidin-2-one] |
| 4.46 nM | C[C@@H](Oc1nc(-c2ccc(N3CCN(S(C)(=O)=O)CC3)cc2)cc2ncn(C)c12)[C@H]1CNC(=O)C1 [(R)-4-((R)-1-(3-methyl-6-(4-(4-(methylsulfonyl)piperazin-1-yl)phenyl)-3H-imidazo[4,5-c]pyridin-4-yloxy)ethyl)pyrrolidin-2-one] |
| 513 nM | COc1ccc(-c2cc3nc[nH]c3c(O[C@H](C)[C@H]3CNC(=O)C3)n2)cc1OC [(R)-4-((R)-1-(6-(3,4-dimethoxyphenyl)-3H-imidazo[4,5-c]pyridin-4-yloxy)ethyl)pyrrolidin-2-one] |
| 9.04 nM | C[C@@H](Oc1cc(-c2ccc(N3CCN(C(=O)OC(C)(C)C)CC3)cc2)cc2ncsc12)[C@H]1CNC(=O)C1 (stereo in doubt) [tert-butyl 4-(4-(7-((R)-1-((R)-5-oxopyrrolidin-3-yl)ethoxy)benzo[d]thiazol-5-yl)phenyl)piperazine-1-carboxylate] |
| 3.05 nM | CCn1cnc2cc(-c3ccc(OC)c(OC)c3)nc(O[C@H](C)[C@H]3CNC(=O)C3)c21 [(R)-4-((R)-1-(6-(3,4-dimethoxyphenyl)-3-ethyl-3H-imidazo[4,5-c]pyridin-4-yloxy)ethyl)pyrrolidin-2-one] |
| 4.9 nM | C[C@@H](Oc1nc(-c2cnn(C(C)(C)C)c2)cc2ncn(C)c12)[C@H]1CNC(=O)C1 [(R)-4-((R)-1-(6-(1-tert-butyl-1H-pyrazol-4-yl)-3-methyl-3H-imidazo[4,5-c]pyridin-4-yloxy)ethyl)pyrrolidin-2-one] |
| 22.8 nM | Cc1cc(-c2cc3ncn(C)c3c(O[C@H](C)[C@H]3CNC(=O)C3)n2)n[nH]1 [(R)-4-((R)-1-(3-methyl-6-(5-methyl-1H-pyrazol-3-yl)-3H-imidazo[4,5-c]pyridin-4-yloxy)ethyl)pyrrolidin-2-one] |
| 5.31 nM | Cc1cc(-c2cc3ncn(C)c3c(O[C@H](C)[C@H]3CNC(=O)C3)n2)ccc1N(C)C [(R)-4-((R)-1-(6-(4-(dimethylamino)-3-methylphenyl)-3-methyl-3H-imidazo[4,5-c]pyridin-4-yloxy)ethyl)pyrrolidin-2-one] |
| 5.16 nM | C[C@@H](Oc1cc(-c2ccc(N3CCN(C(=O)OC(C)(C)C)CC3)cn2)cc2ncsc12)[C@H]1CNC(=O)C1 (stereo in doubt) [tert-butyl 4-(6-(7-((R)-1-((R)-5-oxopyrrolidin-3-yl)ethoxy)benzo[d]thiazol-5-yl)pyridin-3-yl)piperazine-1-carboxylate] |
| 35.1 nM | C[C@@H](Oc1nc(-c2cnn(C(C)(C)C)c2)cc2ncn(C(F)F)c12)[C@H]1CNC(=O)C12CC2 [(R)-7-((R)-1-((6-(1-(tert-butyl)-1H-pyrazol-4-yl)-3-(difluoromethyl)-3H-imidazo[4,5-c]pyridin-4-yl)oxy)ethyl)-5-azaspiro[2.4]heptan-4-one] |
| 85.1 nM | COc1cc(-c2cc(O[C@H](C)[C@H]3CNC(=O)C3)c3ccnn3c2)cc(OC)c1OC [(R)-4-((R)-1-((6-(3,4,5-trimethoxyphenyl)pyrazolo[1,5-a]pyridin-4-yl)oxy)ethyl)pyrrolidin-2-one] |
| 171 nM | COCC[C@@H](Oc1nc(-c2cnn(C(C)(C)C)c2)cc2ncn(C)c12)[C@H]1CNC(=O)C1 [(R)-4-((R)-1-(6-(1-tert-butyl-1H-pyrazol-4-yl)-3-methyl-3H-imidazo[4,5-c]pyridin-4-yloxy)-3-methoxypropyl)pyrrolidin-2-one] |
| 1.22 nM | C[C@@H](Oc1nc(-c2cnn(C(C)(C)C)c2)cc2ncn(C(F)F)c12)[C@H]1CNC(=O)C1 [(R)-4-((R)-1-(6-(1-tert-butyl-1H-pyrazol-4-yl)-3-(difluoromethyl)-3H-imidazo[4,5-c]pyridin-4-yloxy)ethyl)pyrrolidin-2-one] |
| 12.7 nM | C[C@@H](Oc1nc(-c2cnn3ccccc23)cc2ncn(C)c12)[C@H]1CNC(=O)C1 [(R)-4-((R)-1-(3-methyl-6-(pyrazolo[1,5-a]pyridin-3-yl)-3H-imidazo[4,5-c]pyridin-4-yloxy)ethyl)pyrrolidin-2-one] |
| 0.321 nM | COc1ccc(-c2cn3ncc(Cl)c3c(O[C@H](C)[C@H]3CNC(=O)C3)n2)cc1OC [(R)-4-((R)-1-((3-chloro-6-(3,4-dimethoxyphenyl)pyrazolo[1,5-a]pyrazin-4-yl)oxy)ethyl)pyrrolidin-2-one] |
| 9.62 nM | C[C@@H](Oc1nc(-c2ccc3c(cnn3C)c2)cc2ncn(C)c12)[C@H]1CNC(=O)C1 [(R)-4-((R)-1-((3-methyl-6-(1-methyl-1H-indazol-5-yl)-3H-imidazo[4,5-c]pyridin-4-yl)oxy)ethyl)pyrrolidin-2-one] |

same assay, conditions: table 'ALL NEW COMPOUNDS IN 2014', 20 μM ATP, 1 μM biotinylated peptide, 0.015 nM Syk, 30 min at room temperature, read-out: Syk IC50

| IC50 | SMILES |
| --- | --- |
| 2.37 nM | C[C@@H](Oc1nc(-c2ccc(N3CCN(C4COC4)CC3)c(F)c2)cc2ncn(C3CC3)c12)[C@H]1CNC(=O)C1 [(R)-4-((R)-1-((3-cyclopropyl-6-(3-fluoro-4-(4-(oxetan-3-yl)piperazin-1-yl)phenyl)-3H-imidazo[4,5-c]pyridin-4-yl)oxy)ethyl)pyrrolidin-2-one] |
| 3.21 nM | C[C@@H](Oc1cc(-c2cnn(C3COC3)c2)cc2ncn(C3CC3)c12)[C@H]1CNC(=O)C1 [(R)-4-((R)-1-((1-cyclopropyl-5-(1-(oxetan-3-yl)-1H-pyrazol-4-yl)-1H-benzo[d]imidazol-7-yl)oxy)ethyl)pyrrolidin-2-one] |
| 1.08 nM | C[C@@H](Oc1nc(-c2ccc3c(c2)NC(=O)C32CCN(S(C)(=O)=O)CC2)cc2ncn(C3CC3)c12)[C@H]1CNC(=O)C1 [6-(3-cyclopropyl-4-((R)-1-((R)-5-oxopyrrolidin-3-yl)ethoxy)-3H-imidazo[4,5-c]pyridin-6-yl)-1′-(methylsulfonyl)spiro[indoline-3,4′-piperidin]-2-one] |
| 1.81 nM | C[C@@H](Oc1nc(-c2ccc3c(cnn3CC(F)F)c2)cc2ncn(C3CC3)c12)[C@H]1CNC(=O)C1 [(R)-4-((R)-1-((3-cyclopropyl-6-(1-(2,2-difluoroethyl)-1H-indazol-5-yl)-3H-imidazo[4,5-c]pyridin-4-yl)oxy)ethyl)pyrrolidin-2-one] |
| 3.54 nM | C[C@@H](Oc1nc(-c2cnc(C3CCOCC3)s2)cc2ncn(C3CC3)c12)[C@H]1CNC(=O)C1 [(R)-4-((R)-1-((3-cyclopropyl-6-(2-(tetrahydro-2H-pyran-4-yl)thiazol-5-yl)-3H-imidazo[4,5-c]pyridin-4-yl)oxy)ethyl)pyrrolidin-2-one] |
| 9.4 nM | C[C@@H](Oc1cc(-c2nccs2)cc2ncn(C3CC3)c12)[C@H]1CNC(=O)C1 [(R)-4-((R)-1-((1-cyclopropyl-5-(thiazol-2-yl)-1H-benzo[d]imidazol-7-yl)oxy)ethyl)pyrrolidin-2-one] |
| 12.9 nM | CCOc1cc(-c2cc(O[C@H](C)[C@H]3CNC(=O)C3)c3c(c2)ncn3C2CC2)ccc1OC [(R)-4-((R)-1-((1-cyclopropyl-5-(3-ethoxy-4-methoxyphenyl)-1H-benzo[d]imidazol-7-yl)oxy)ethyl)pyrrolidin-2-one] |
| 2.1 nM | C[C@@H](Oc1nc(-c2cnc(C(C)(C)C)s2)cc2ncn(C3CC3)c12)[C@H]1CNC(=O)C1 [(R)-4-((R)-1-((6-(2-(tert-butyl)thiazol-5-yl)-3-cyclopropyl-3H-imidazo[4,5-c]pyridin-4-yl)oxy)ethyl)pyrrolidin-2-one] |
| 5.21 nM | C[C@@H](Oc1nc(-c2ccc(N3CCN(C4COC4)CC3)c(C#N)c2)cc2ncn(C3CC3)c12)[C@H]1CNC(=O)C1 [5-(3-cyclopropyl-4-((R)-1-((R)-5-oxopyrrolidin-3-yl)ethoxy)-3H-imidazo[4,5-c]pyridin-6-yl)-2-(4-(oxetan-3-yl)piperazin-1-yl)benzonitrile] |
| 2.9 nM | C[C@@H](Oc1nc(-c2ccc(N3CCN(C4COC4)CC3)nc2)cc2ncn(C(F)F)c12)[C@H]1CNC(=O)C1 [(R)-4-((R)-1-((3-(difluoromethyl)-6-(6-(4-(oxetan-3-yl)piperazin-1-yl)pyridin-3-yl)-3H-imidazo[4,5-c]pyridin-4-yl)oxy)ethyl)pyrrolidin-2-one] |
| 12.5 nM | C[C@@H](Oc1nc(-c2ccccc2)cc2ncn(C3CC3)c12)[C@H]1CNC(=O)C1 |
| 2.25 nM | C[C@@H](Oc1nc(-c2ccc3c(c2)NCCN3C)cc2ncn(C3CC3)c12)[C@H]1CNC(=O)C1 [(R)-4-((R)-1-((3-cyclopropyl-6-(1-methyl-1,2,3,4-tetrahydroquinoxalin-6-yl)-3H-imidazo[4,5-c]pyridin-4-yl)oxy)ethyl)pyrrolidin-2-one] |
| 8.43 nM | C[C@@H](Oc1cc(-c2cccc(N)n2)cc2ncn(C3CC3)c12)[C@H]1CNC(=O)C1 [(R)-4-((R)-1-((5-(6-aminopyridin-2-yl)-1-cyclopropyl-1H-benzo[d]imidazol-7-yl)oxy)ethyl)pyrrolidin-2-one] |
| 16.7 nM | Cc1nc(-c2cc(O[C@H](C)[C@H]3CNC(=O)C3)c3c(c2)ncn3C2CC2)cs1 [(R)-4-((R)-1-((1-cyclopropyl-5-(2-methylthiazol-4-yl)-1H-benzo[d]imidazol-7-yl)oxy)ethyl)pyrrolidin-2-one] |

| SMILES | IC50 |
| --- | --- |
| C[C@@H](Oc1nc(-c2ccc(N3CC4CC(C3)N4)cc2)cc2ncn(C3CC3)c12)[C@H]1CNC(=O)C1 [(4R)-4-((1R)-1-((6-(4-(3,6-diazabicyclo[3.1.1]heptan-3-yl)phenyl)-3-cyclopropyl-3H-imidazo[4,5-c]pyridin-4-yl)oxy)ethyl)pyrrolidin-2-one] | 2.29 nM |
